Test results: US9724300B2, “Long-lasting, controlled-release local anesthetic liposome preparation” (Terumo Kabushiki Kaisha, priority 2012, dated 2017)
Structures can show the parent of a compound that is named as a salt.

Test system: postoperative pain model of rats
Assay: Postoperative pain model of rats (foot sole pain model), von Frey filament test
Assay type: in vivo, male Wistar rats
Experimental: A pentobarbital sodium injection (Nembutal injection, made by Sumitomo Dainippon Pharma Co., Ltd.) (0.3 mL) was intraperitoneally administered to male Wistar rats for anesthesia. Thereafter, a skin incision was made with a No. 11 scalpel blade (made by FEATHER Safety Razor Co., Ltd.) longitudinally at a position of 5 mm from the heel of the left foot bottom. The plantaris muscle was taken out from the incision site, followed by longitudinal incision. Subsequently, the skin was subjected to a knotted suture with a 5-0 nylon thread by double stitches. Moreover, a […] was applied in a single layer thereonto so as not to permit the administered controlled-release preparation to leak. […] More particularly, using the von Frey hair set (commercial name: Touch-Test, made by North Coast Medical Inc.) requiring a given stress before bending, this was pressed against the operated site of rats vertically from beneath the mesh of a gauge wherein rats were accommodated, whereupon a stress (a withdrawal threshold against mechanical stimuli) was determined at the time when the rat raised paws in surprise. […] Using the postoperative pain model of rat set out above, the analgesic effect of the bupivacaine hydrochloride-containing, controlled-release preparation of Example 1 was evaluated according to the von Frey filament test. […]

Row | SMILES | analgesic effect (increase of threshold value) (bupivacaine hydrochloride itself (stock solution), similar postoperative pain model of rats) | analgesic effect (increase of threshold value) (ropivacaine hydrochloride itself (stock solution), similar postoperative pain model of rat)
1 | CCCCN1CCCCC1C(=O)Nc1c(C)cccc1C (centres unmarked) [bupivacaine hydrochloride, Bupivacaine hydrochloride] | no analgesic effect was obtained even at the postoperative first day | 
2 | CCCN1CCCC[C@H]1C(=O)Nc1c(C)cccc1C [ropivacaine hydrochloride, Ropivacaine hydrochloride] |  | no analgesic effect was obtained even at the postoperative first day
